This note sets out measurements from ChEMBL document CHEMBL4482310, “Inhibitors of grb2-associated binding protein 1 (gab1) and methods of treating cancer using the same” (2017).

Usually Kd stands for the constant that tells how readily two partners part at equilibrium. For orientation: inhibition means the drop in the measured response relative to a control, in per cent.

Series [1] addresses T1, GRB2-associated-binding protein 1 (Homo sapiens, UniProt Q13480).
T1 sequence (Q13480 whole entry): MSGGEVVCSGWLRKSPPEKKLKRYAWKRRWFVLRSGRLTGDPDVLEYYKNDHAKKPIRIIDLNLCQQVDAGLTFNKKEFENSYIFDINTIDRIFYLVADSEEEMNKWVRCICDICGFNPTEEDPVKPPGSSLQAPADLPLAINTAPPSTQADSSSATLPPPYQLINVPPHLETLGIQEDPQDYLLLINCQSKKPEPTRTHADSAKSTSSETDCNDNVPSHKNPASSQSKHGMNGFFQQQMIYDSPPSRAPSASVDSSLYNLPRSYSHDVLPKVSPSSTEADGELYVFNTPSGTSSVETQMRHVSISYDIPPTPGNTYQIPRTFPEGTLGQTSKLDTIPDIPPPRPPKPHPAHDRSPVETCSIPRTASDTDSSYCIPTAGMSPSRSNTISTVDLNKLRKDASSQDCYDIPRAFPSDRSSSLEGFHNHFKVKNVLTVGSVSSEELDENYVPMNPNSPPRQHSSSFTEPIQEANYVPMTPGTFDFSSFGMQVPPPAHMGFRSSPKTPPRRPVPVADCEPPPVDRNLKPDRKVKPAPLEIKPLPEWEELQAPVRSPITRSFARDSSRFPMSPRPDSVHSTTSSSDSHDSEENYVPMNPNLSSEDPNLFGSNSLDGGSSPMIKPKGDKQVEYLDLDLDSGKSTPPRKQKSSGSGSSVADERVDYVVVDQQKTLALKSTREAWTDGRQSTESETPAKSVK
In words: Binding affinity to recombinant human GAB1 PH domain expressed in Escherichia coli BL21 (DE3) by surface plasmon resonance assay.

Series [2] addresses T2, Insulin receptor substrate 1 (Homo sapiens, UniProt P35568).
T2 sequence (P35568 whole entry): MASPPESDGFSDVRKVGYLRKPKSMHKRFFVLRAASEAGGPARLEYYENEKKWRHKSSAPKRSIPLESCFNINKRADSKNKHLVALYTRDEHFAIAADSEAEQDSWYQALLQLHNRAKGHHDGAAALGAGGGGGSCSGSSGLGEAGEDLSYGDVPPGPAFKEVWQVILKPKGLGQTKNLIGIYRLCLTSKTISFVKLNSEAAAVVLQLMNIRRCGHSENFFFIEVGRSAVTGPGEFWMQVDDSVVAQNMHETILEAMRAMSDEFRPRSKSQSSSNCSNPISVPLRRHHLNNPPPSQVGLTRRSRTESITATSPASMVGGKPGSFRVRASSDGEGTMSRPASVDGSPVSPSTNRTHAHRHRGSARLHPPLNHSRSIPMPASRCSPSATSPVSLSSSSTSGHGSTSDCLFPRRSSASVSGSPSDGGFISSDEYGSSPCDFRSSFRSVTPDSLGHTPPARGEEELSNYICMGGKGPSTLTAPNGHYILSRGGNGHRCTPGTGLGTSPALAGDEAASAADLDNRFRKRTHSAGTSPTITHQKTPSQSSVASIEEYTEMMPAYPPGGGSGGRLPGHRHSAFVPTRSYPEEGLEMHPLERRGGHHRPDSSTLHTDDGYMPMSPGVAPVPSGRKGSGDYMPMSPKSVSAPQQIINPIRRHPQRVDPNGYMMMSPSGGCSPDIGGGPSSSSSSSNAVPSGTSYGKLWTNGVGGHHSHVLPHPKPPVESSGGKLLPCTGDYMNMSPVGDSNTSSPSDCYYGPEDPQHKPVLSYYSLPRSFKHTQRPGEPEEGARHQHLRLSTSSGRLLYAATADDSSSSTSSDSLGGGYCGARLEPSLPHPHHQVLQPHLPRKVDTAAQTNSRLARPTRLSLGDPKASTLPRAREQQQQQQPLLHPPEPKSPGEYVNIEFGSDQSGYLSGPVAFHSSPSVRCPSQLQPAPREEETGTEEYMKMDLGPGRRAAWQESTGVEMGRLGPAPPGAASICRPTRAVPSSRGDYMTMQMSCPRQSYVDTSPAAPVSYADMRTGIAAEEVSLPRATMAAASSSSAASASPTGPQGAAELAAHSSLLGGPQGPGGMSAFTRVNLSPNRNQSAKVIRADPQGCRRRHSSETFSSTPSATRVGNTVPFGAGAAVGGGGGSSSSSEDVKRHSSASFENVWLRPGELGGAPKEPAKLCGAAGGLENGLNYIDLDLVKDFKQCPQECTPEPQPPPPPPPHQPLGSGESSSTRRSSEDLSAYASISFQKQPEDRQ
In words: Binding affinity to recombinant human IRS1 PH domain expressed in Escherichia coli BL21 (DE3) by surface plasmon resonance assay. On the technique in general: Surface plasmon resonance follows binding to a sensor surface in real time, without labels.

In series [3] the test system is MDA-MB-231. In words: Cytotoxicity in human MDA-MB-231 cells assessed as reduction in cell viability incubated for 4 days by MTT assay. In kind it is functional, cell-based. (Formazan colour is commonly taken as a measure of viable cells.)
Series [4] deals with T47D. The experiment in a line: Cytotoxicity in human T47D cells assessed as reduction in cell viability incubated for 4 days by MTT assay. In kind it is functional, cell-based.
For series [5], the target named is T3, Insulin receptor substrate 1 (Homo sapiens) (UniProt P35568).
T3 sequence (whole entry): T2 sequence (P35568 whole entry)
The experiment in a line: Inhibition of HGF-induced IRS1 phosphorylation in human T47D cells assessed as pSer312 IRS1/total-IRS1 ratio level at 20 uM pre-incubated for 4 hrs before stimulation with HGF for 20 mins (reference value: 100 +/- 0.02%). Type of series: cell-based. Further details: scale not given: the % may be the effect or the level left; call rule not given here.

Series [6] relates to MCF-10A. The experiment in a line: Cytotoxicity in human MCF10A cells assessed as reduction in cell viability incubated for 4 days by MTT assay. In kind it is cell-based. The note with it: 96 h.
Series [7] relates to MCF-10A. The experiment in a line: Cytotoxicity in human MCF10A cells assessed as reduction in cell viability at 100 uM incubated for 4 days by MTT assay. Type of series: cell-based. The note with it: 96 h.
Series [8] addresses T4, GRB2-associated-binding protein 1 (Homo sapiens) (UniProt Q13480).
T4 sequence (whole entry): T1 sequence (Q13480 whole entry)
The experiment in a line: Inhibition of HGF-stimulated GAB1 Y627 phosphorylation in human T47D cells at 20 uM pre-incubated for 4 hrs before stimulation with HGF for 20 mins. Type of series: cell-based.

With `Cn1c(Cc2ccsc2)nnc1SCC(=O)Nc1cc(Cl)cc(Cl)c1`, the Kd entry in series [1] and in series [2] was “Not Active” throughout. Besides, the IC50 result in series [3] and in series [4] was “Not Active” in each case. Besides, in series [5], the Activity came out at 84.8%.
For the molecule `Cc1nc(-c2ccc(S(=O)(=O)N3CCN(C4c5ccccc5-c5ccccc54)CC3)s2)cs1`, in series [5], the Activity worked out at 98.7%.
As for `O=c1[nH]nc(SCc2csc(-c3ccccc3)n2)n1Cc1ccco1`, the Kd in series [1] (read-out: Kd) was 2200 nM; in series [2] it was “Not Active”. In addition, the Activity in series [5] is 40.7%; in series [6], “Non-Toxic”.
Regarding `CCc1ccc(C(=O)OC)cc1CSc1nnc(-c2ccc(C(F)(F)F)cc2)n1Cc1ccoc1`, in series [5], the Activity came out at 64.4%.
For `O=C(O)c1ccccc1C(=O)Nc1ccccc1SCCS(=O)(=O)c1ccc(Cl)cc1`, the Kd entry in series [1] and in series [2] was “Not Active” in each case. Besides, the IC50 result in series [3] was “Not Active”. The values for the Activity in series [5] and in series [7] were 75.6% and “Non-Toxic”, respectively.
Regarding `CS(=O)(=O)CCSc1ncccc1C(=O)Sc1ccc(Cl)cc1Cl`, the Kd in series [1] (read-out: Kd) came to 42300 nM; in series [2] (read-out: Kd), 1600 nM. In addition, the Activity was 79.7% in series [5] and “Non-Toxic” in series [6].
For the molecule `CCCCCCCCCCCCc1ccc(S(=O)(=O)Nc2nnc(CC(=O)OCC)s2)cc1`, the Kd in series [1] (read-out: Kd) amounted to 900 nM; in series [2] (read-out: Kd), 150 nM. In series [8], the inhibition was 96%. Also, the Activity in series [5] was 60.6%; in series [6] it was “Non-Toxic”.
Take `O=S(=O)(NCc1csc(-c2cccs2)n1)c1ccc(N2CCOCC2)nc1`: the results for the Kd entry in series [1] and in series [2] (read-out: Kd) were “Not Active” and 16200 nM, respectively. The IC50 entry in series [3] is given as “Not Active”. In addition, the Activity in series [5] turned out to be 101%.
`CCCCCCCCCCCCc1ccc(S(=O)(=O)Nc2nnc(S(N)(=O)=O)s2)cc1`: in series [2], the Kd entry is “Not Active”. Moreover, the Activity in series [5] came out at 115%.
In the case of `Cc1onc(-c2ccccc2)c1-c1nc(CSc2nc3ccccc3[nH]2)no1`, the values for the Kd result in series [1] and in series [2] (read-out: Kd) were “Not Active” and 120 nM, respectively. The Activity in series [5] is 31.1%.
In series [8], `CCCCCCCCCCCCCCCCCCOC[C@H](COP(=O)(O)O[C@H]1[C@H](O)[C@@H](O)[C@H](O)C[C@H]1O)OC` came in with an inhibition of 72%. Also, the Activity in series [5] is 116%.
For the molecule `COc1cc(NS(=O)(=O)c2ccc(NS(=O)(=O)c3c(C)noc3C)cc2)nc(OC)n1`, the Kd entry in series [1] and in series [2] was “Not Active” in each case. Moreover, the IC50 entry in series [3] and in series [4] was “Not Active” throughout. In addition, the Activity in series [5] was 91.7%; in series [7], “Non-Toxic”.
Consider `Cc1cc2ncc(-c3cnc(SCCS(=O)(=O)c4ccc(Cl)cc4)nc3)c(C)n2n1`, for which the Kd result in series [1] and in series [2] was “Not Active” each time. Moreover, the Activity in series [5] was determined as 98.2%.
With `CS(=O)(=NS(=O)(=O)c1ccc(-c2ccccn2)s1)c1ccc(Cl)cc1` (stereo unspecified), the Kd entry in series [1] and in series [2] was “Not Active” throughout. In addition, the IC50 entry in series [3] and in series [4] was “Not Active” throughout. For the same molecule, the Activity in series [5] came out at 102%.
As for `CCCCCCCCCCCCc1ccc(S(=O)(=O)Nc2nnc(C(=O)OCC)s2)cc1`, the Kd in series [1] (read-out: Kd) was 680 nM; in series [2] (read-out: Kd) it was 50 nM. The inhibition in series [8] was 82%. In addition, the Activity was 78.4% in series [5] and “Non-Toxic” in series [6].
Turning to `CCCCCCCCCCCCc1ccc(S(=O)(=O)Nc2nncs2)cc1`, in series [1] (read-out: Kd), the Kd is 1330 nM. For the same molecule, the Activity in series [5] amounted to 61.3%.
`Cc1noc(C)c1NC(=O)NCc1csc(-c2cccs2)n1`: the Kd result in series [1] and in series [2] was “Not Active” each time. Besides, in series [5], the Activity was found to be 100%.
Turning to `CCCCCCCCCCCCc1ccc(S(=O)(=O)Nc2nnc(CC(=O)O)s2)cc1`, the Kd in series [2] (read-out: Kd) was found to be 50 nM. In addition, the Activity in series [5] was 69%.
Turning to `Cc1nnc(NS(=O)(=O)c2ccc(NS(=O)(=O)c3ccc4ccccc4c3)cc2)s1`, the dissociation constant (Kd) entry in series [1] and in series [2] was “Not Active” each time. Also, in series [5], the Activity was determined as 89.9%.
Consider `O=S(=O)(NCc1csc2ccc(Cl)cc12)c1cc(S(=O)(=O)c2ccccc2)cs1`, for which, in series [2], the Kd entry is recorded as “Not Active”. Further, the Activity in series [5] is 46.5%; in series [6], “Non-Toxic”.
As to `Cn1cnc(S(=O)(=O)Nc2ccccc2SCCS(=O)(=O)c2ccc(Cl)cc2)c1`, the figures for the Kd in series [1] (read-out: Kd) and in series [2] (read-out: Kd) were 2100 nM and 16400 nM, respectively. Moreover, in series [5], the Activity turned out to be 83.2%.
